Tests used:
Assay type in all cases: physicochemical
[1] = Particle size by AeroSizer time-of-flight (Example 1); conditions: aerodynamic-equivalent volume mean diameter
Protocol: PSD measurements were performed using firstly, AEROSIZER® time-of-flight instrument equipped with AERO-[…]® (TSI Inc., Minneapolis. USA) and secondly, laser diffraction sensor Helos with dry-powder air-dispersion system Rodos (Sympatec GmbH. Germany). The volume mean particle diameter, VMD, was obtained for both instruments using software options. In the general case of non-spherical particles, these instruments cannot provide the exact value of VMD, however, the time-of-flight technique gives an aerodynamic-equivalent particle diameter, whereas the laser diffraction method provides the geometric projection-equivalent diameter. These diameters afford the complementary information on PSD and therefore can be used for comparative size analysis.

[2] = Inverse gas chromatography surface energy (Example 1); conditions: 303K
Description: For TBS and FHBr powders, IGC was done using a Hewlett Packard Series 6890 instrument which was specifically modified for IGC measurements by Surface Measurement Systems Ltd (Manchester, UK). The IGC method is described in detail by Tong et al. 2001. (Tong H. H. Y., B. Y. Shekunov, P. York, A. H. L. Chow, 2001. Pharm. Res. 18, 852.) Triplicate measurements in separate packed columns were made. […] The γS^D and ΔGA values were obtained at 303K.

[3] = Differential scanning calorimetry (Example 8); conditions: DSC, 10° C. min^−1
Protocol: Prior to sample analysis, a baseline was obtained which was used as a background. […] Temperature and enthalpy were calibrated with the standard materials indium (melting point=156.6° C.) and zinc (melting point=419.5° C.). Samples (1-10) were accurately weighed into pierced, crimped aluminium pans and heated at 10° C. min^−1 over a heating range of 25-290° C. under a nitrogen purge. A chiller unit was used in conjunction with the calorimeter to attain the lower temperatures.

[4] = Dynamic vapor sorption (Example 8); conditions: 25° C.
Protocol: The moisture sorption isotherm of each powder at 25° C. was measured using a dynamic vapour sorption (DVS) instrument made by Surface Measurement Systems, UK. This instrument gravimetrically measures uptake and loss of water vapor on a substrate by means of a recording microbalance with a resolution of ±0.1 μg. In the first step of the experimental run, the sample was dried at 25° C. and 0% relative humidity (RH) for at least 600 minutes to bring the sample to near zero wt % H2O. Then, the instrument was programmed to increase the RH in steps of 5% RH from 0% to 90% RH and decrease the RH in steps of 10% RH from 90% to 0% RH. A criterion of dm/dt=0.005%/min was chosen for the system to hold at each RH step before proceeding to the next RH step. Sample masses between 30 and 100 mg were used in this study. The change in mass (%) is expressed in terms of g H2O per 100 g of dry substance.

[5] = Isothermal microcalorimetry, TAM with RH ramp (Example 8); conditions: 25° C., RH ramp 0 to 90% at 3% RH/hr; listed as TBS2
Protocol: A Thermal Activity Monitor (TAM, model 2277; Thermometric A B, Jrflla, Sweden) was used to measure the calorimetric heat flow (μW) vs. % RH profile of each sample. A RH-perfusion cell (Model 2255-120) accessory for the TAM was used to control RH within the sample vessel. The carrier gas, dry N2, was flowed at a constant rate (1.48 cm^3/min). All experiments were performed at 25° C. About 100 to 105 mg accurately weighed of each powder were placed in a stainless steel ampoule, attached to the RH perfusion cell, and then dried under 0% RH until a stable heat flow signal was reached (e.g., a signal within the range of −1 to +1 μW). The RH was then increased in a linear ramp from 0 to 90% over the following 30 hours (i.e., 3% RH/hr). The heat flow arising from interactions of water vapor with the solid sample was measured as a function of time. Since RH changed with time in a linear fashion, the heat flow was also known as a function of RH.
The TAM measures the total heat flow in power, P, produced from either a physical or chemical reaction. In this study, the calorimetric power is proportional to the rate of moisture sorption or desorption, crystallization, and/or other processes. Exothermic events are measured as a deflection in the positive y-axis direction. Although crystallization is an exothermic process, it can be observed as a net endothermic process. During crystallization, there is an exotherm due to crystallization and a simultaneous endotherm due to desorption of previously sorbed moisture. The TAM profile gives the resultant of these processes.

[6] = AEROFLOW powder avalanching (Example 8); conditions: listed as TBS 2
Protocol: An AEROFLOW™ powder avalanching apparatus (Amherst Process Instruments, API, Amherst, USA) was employed to analyze the dynamic avalanching behaviour of micronized and SC processed TBS samples. The AEROFLOW™ apparatus consists of a transparent rotating drum with a port at the front. A white light source is positioned in front of the drum and a masked array of photocells is behind the drum. To measure avalanching, 50 ml of the drug powder was added to the drum, which is about 15% of its total volume to ensure good powder mixing during the operation. As the drum rotates, the powder bed is carried upwards until an unstable state is reached and an avalanche occurs.
The time between successive avalanches was recorded by the projection of the light beam through the drum onto the photocell array. The photocells generated a voltage dependent on the amount of light falling on the cells and the area of unmasked photocells shielded from the light source by the powder. The voltage output (transmitted light intensity) was recorded by a computer, which translates the output as powder movement using a technique disclosed in B. H. Kaye. Characterizing the flowability of a powder using the concepts of fractal geometry and chaos theory, Part. Part. Charact. 14: 53-66 (1997). Each TBS sample was tested in duplicate and mean avalanche time and irregularity (scatter) of avalanches were recorded.

VMD (μm) (Time of flight) [1]: 3.4 μm
γs^D (mJ/m^2) [2]: 55.05 mJ/m^2
ΔGA (kJ/mol) Acetone ([2]; probe acetone): 10.42 kJ/mol
ΔGA (kJ/mol) Chloroform ([2]; probe chloroform): 1.21 kJ/mol
ΔGA (kJ/mol) Dioxane ([2]; probe dioxane): 14.20 kJ/mol
ΔGA (kJ/mol) Ethyl acetate ([2]; probe ethyl acetate): 13.76 kJ/mol
ΔGA (kJ/mol) Toluene ([2]; probe toluene): 2.85 kJ/mol
Enthalpy of Fusion ([3]; listed as TBS 2): 88.68 J/g
Enthalpy of Fusion ([3]; listed as TBS2): 88.68 J/g
RH of thermal event in TAM profile [5]: about 85 % RH
Irregularity of flow ([6]; 100 sec/rev): 1.17 s
Mean time to avalanche ([6]; 100 sec/rev): 3.30 s
Irregularity of flow ([6]; 145 sec/rev): 2.12 s
Mean time to avalanche ([6]; 145 sec/rev): 4.91 s
SMILES: CC(C)(C)NCC(O)c1cc(O)cc(O)c1 (stereo not drawn) [TSB SEDS, terbutaline sulphate]
moisture uptake compared with micronised sample [4]: slightly higher moisture uptake than the micronised sample
